Data taken from patent publication US20120157422A1, “MARKER” (UCL BUSINESS PLC, priority 2009, published 2012).

How the values were obtained:
[1] = tested on: women at increased risk of preterm delivery; conditions: whole PREMET study, fFN positive women, one week course; cited from earlier work
[2] = tested on: women at increased risk of preterm delivery; test: PREMET subgroup providing saliva samples: metronidazole versus placebo; assay type: in vivo, human; conditions: 17 women on metronidazole vs 7 on placebo (36.4 weeks), p=0.73, no significant difference
Source text: A group of women at increased risk of preterm delivery participating in a study to assess the potential benefit of metronidazole in the prevention of preterm delivery (The PREMET study') provided saliva specimens from 24 weeks of gestation until 34 weeks or delivery in order to interrogate further the association between the steroid hormone profile and gestational age at delivery.
In the PREMET study 892 women with singleton pregnancies, who had at least one risk factor for preterm delivery, were recruited between 23^+0 and 24^+6 weeks over a four and a half year period.^1 Eligibility included singleton pregnancy with a history of preterm birth or preterm prelabour rupture of the membranes before 37 completed weeks of gestation, previous late miscarriage, uterine anatomical abnormality, cervical surgery prior to the index pregnancy or current cervical cerclage. Women were screened for cervico-vaginal fetal fibronectin (fFN) at 24 and 27 weeks gestation. Those who were fFN positive (≧50 ng/mL) were randomised to receive a one week course of metronidazole or placebo.
Weekly saliva samples, provided from 24 weeks of gestation until 34 weeks or delivery, were analysed for saliva E3 and progesterone by radioimmunoassay as previously described.^3 Briefly, aliquots (100 μL) of saliva were mixed with 50 μL sodium carbonate solution pH 10.5 and extracted with 10 volumes of diethyl ether. […]

[3] = tested on: high risk women; conditions: versus placebo; cited from earlier work

Compound | preterm delivery associated with treatment [1] | gestational age at delivery [2] [weeks] | benefit of the intervention [3]
Cc1ncc([N+](=O)[O-])n1CCO [metronidazole] | small but significant increase | 35.6 | 
CCCCCC(=O)O[C@]1(C(C)=O)CC[C@H]2[C@@H]3CCC4=CC(=O)CC[C@]4(C)[C@H]3CC[C@@]21C [17α hydroxyprogesterone caproate] |  |  | significant benefit
